In patent US11739098B2 (BRISTOL-MYERS SQUIBB COMPANY, priority 2017, dated 2023):

Columns and labels:
Assay type in all cases: cell-based
[1] = target: T1, human TLR9 (Homo sapiens, UniProt Q9NR96); experiment: TLR9 inhibition reporter assay (HEK-Blue cells, SEAP reporter, ODN2006 stimulation); settings: HEK-Blue cells overexpressing human TLR9, SEAP reporter, ODN2006 5 nM
T1 construct: host or cells: HEK-Blue cells (HEK293-derived reporter line)
T1 sequence (Q9NR96 26-1032): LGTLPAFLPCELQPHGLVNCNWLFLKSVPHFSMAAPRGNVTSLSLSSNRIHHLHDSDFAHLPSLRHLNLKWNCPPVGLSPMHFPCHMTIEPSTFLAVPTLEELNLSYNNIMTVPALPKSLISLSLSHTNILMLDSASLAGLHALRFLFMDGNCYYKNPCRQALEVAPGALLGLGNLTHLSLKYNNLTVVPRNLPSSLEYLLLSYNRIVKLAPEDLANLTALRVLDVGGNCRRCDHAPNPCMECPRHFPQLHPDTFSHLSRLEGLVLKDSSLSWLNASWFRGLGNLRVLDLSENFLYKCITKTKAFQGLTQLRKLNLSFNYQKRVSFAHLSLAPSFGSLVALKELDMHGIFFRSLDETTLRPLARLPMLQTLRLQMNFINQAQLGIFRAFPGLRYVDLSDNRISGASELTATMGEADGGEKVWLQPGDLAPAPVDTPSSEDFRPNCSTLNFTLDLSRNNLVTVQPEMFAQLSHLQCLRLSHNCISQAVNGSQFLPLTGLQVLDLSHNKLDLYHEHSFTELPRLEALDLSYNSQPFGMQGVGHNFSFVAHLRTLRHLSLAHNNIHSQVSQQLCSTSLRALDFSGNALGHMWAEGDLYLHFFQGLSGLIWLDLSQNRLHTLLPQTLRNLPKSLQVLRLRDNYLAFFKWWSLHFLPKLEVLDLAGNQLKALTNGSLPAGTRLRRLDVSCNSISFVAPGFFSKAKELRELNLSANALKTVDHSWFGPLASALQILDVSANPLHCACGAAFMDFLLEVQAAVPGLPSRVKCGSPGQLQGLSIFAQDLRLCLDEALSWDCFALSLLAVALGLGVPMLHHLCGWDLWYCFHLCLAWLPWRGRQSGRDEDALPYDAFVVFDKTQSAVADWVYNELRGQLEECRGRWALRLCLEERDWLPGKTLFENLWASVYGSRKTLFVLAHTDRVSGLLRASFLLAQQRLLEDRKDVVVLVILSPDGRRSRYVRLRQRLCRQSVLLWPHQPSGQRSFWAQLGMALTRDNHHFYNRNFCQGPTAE
In short: (§1)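 Agonists (final): TLR7 gardiquimod 7.5 μM; TLR8 R848 15.9 μM; TLR9 ODN2006 5 nM. HEK-Blue reporter cells, 30 min RT compound pre-incubation, 0.05 nM–50 μM dose range, 22 h at 37 °C, colorimetric SEAP detection medium. % inhibition relative to agonist+DMSO and known-inhibitor wells.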

[2] = target: T2, human TLR8 (Homo sapiens, UniProt Q9NR97); experiment: TLR8 inhibition reporter assay (HEK-Blue cells, SEAP reporter, R848 stimulation); settings: HEK-Blue cells overexpressing human TLR8, SEAP reporter, R848 15.9 μM
T2 construct: host or cells: HEK-Blue cells (HEK293-derived reporter line)
T2 sequence (Q9NR97 27-1041): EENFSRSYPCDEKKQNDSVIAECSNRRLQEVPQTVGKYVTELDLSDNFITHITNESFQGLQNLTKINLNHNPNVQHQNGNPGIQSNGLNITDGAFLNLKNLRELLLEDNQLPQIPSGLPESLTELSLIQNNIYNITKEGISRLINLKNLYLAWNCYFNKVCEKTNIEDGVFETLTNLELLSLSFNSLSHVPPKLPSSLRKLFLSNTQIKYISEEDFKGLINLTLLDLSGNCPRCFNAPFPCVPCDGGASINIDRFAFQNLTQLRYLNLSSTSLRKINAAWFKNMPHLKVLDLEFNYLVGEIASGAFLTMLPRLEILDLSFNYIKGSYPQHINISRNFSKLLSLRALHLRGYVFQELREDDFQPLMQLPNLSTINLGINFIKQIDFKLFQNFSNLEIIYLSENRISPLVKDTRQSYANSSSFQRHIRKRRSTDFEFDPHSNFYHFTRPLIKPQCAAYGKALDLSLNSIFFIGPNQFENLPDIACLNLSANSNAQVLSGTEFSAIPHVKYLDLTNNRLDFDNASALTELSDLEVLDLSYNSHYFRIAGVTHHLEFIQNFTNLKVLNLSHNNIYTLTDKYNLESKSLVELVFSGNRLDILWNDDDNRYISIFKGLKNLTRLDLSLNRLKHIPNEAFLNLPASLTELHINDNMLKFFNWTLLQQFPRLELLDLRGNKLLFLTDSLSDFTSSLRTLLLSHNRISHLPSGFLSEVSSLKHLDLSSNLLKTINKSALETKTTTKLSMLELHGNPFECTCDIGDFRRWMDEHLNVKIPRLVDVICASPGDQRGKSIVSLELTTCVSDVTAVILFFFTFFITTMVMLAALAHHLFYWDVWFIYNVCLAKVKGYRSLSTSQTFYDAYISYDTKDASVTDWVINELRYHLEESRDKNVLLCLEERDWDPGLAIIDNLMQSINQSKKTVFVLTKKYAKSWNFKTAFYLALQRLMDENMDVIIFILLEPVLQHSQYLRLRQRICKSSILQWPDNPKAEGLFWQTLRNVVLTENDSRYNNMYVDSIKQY
In short: as §1

[3] = target: T3, human TLR7 (Homo sapiens, UniProt Q9NYK1); experiment: TLR7 inhibition reporter assay (HEK-Blue cells, SEAP reporter, gardiquimod stimulation); settings: HEK-Blue cells overexpressing human TLR7, SEAP reporter, gardiquimod 7.5 μM
T3 construct: host or cells: HEK-Blue cells (HEK293-derived reporter line)
T3 sequence (Q9NYK1 27-1049): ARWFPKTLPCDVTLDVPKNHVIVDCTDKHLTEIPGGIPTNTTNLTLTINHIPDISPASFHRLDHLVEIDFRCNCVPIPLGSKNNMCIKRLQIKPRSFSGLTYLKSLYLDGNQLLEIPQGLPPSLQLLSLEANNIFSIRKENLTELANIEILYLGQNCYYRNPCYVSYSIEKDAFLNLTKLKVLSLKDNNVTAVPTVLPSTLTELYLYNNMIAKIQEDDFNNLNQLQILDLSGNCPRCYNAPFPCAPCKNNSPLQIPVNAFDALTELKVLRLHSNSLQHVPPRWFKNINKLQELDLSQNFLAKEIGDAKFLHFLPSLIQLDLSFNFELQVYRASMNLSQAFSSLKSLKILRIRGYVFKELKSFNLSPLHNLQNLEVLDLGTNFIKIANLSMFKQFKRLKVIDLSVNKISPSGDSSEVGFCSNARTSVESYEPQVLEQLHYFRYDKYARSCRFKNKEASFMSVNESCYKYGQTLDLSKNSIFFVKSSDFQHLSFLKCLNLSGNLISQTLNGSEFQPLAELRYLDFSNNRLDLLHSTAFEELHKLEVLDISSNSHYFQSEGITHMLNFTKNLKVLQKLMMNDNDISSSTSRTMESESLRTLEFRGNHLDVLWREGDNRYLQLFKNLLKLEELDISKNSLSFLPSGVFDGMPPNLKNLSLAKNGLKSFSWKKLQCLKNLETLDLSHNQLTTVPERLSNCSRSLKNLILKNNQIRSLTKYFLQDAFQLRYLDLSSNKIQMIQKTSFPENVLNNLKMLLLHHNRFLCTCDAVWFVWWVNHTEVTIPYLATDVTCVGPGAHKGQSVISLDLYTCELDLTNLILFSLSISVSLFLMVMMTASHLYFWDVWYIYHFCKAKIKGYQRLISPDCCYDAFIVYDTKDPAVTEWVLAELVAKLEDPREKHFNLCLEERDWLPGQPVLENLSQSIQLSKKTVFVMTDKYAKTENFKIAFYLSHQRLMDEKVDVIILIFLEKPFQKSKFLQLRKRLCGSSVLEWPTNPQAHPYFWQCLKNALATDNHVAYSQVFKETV
In short: as §1

Row | IC50 [1] | IC50 [2] | IC50 [3] | Structure (SMILES)
1 | 100 to 1000 nM | < 100 nM | 100 to 1000 nM | CC(C)c1c(-c2ccnc3[nH]ncc23)[nH]c2ccc(C3CCN(Cc4ccc(OCCN(C)c5ccccn5)cc4)CC3)cc12 [Example 894, N-(2-(4-((4-(3-isopropyl-2-(1H-pyrazolo[3,4-b]pyridin-4-yl)-1H-indol-5-yl)piperidin-1-yl)methyl)phenoxy)ethyl)-N-methylpyridin-2-amine]
2 | 1000 to 50000 nM | 1000 to 50000 nM | > 3130 nM | Cc1nc2c(-c3[nH]c4ccc(C5CCN(CC(C)(C)O)CC5)cc4c3C(C)C)ccc(C)n2n1 [Example 768, 1-(4-(2-(2,5-dimethyl-[1,2,4]triazolo[1,5-a]pyridin-8-yl)-3-isopropyl-1H-indol-5-yl)piperidin-1-yl)-2-methylpropan-2-ol]
3 | 100 to 1000 nM | < 100 nM | < 100 nM | CC(C)c1c(-c2ccnc3[nH]ncc23)[nH]c2ccc(C3CCN(C(=O)C4CCCNC4)CC3)cc12 (stereo not drawn) [Example 636, (4-(3-isopropyl-2-(1H-pyrazolo[3,4-b]pyridin-4-yl)-1H-indol-5-yl)piperidin-1-yl)(piperidin-3-yl)methanone]
4 | 1000 to 50000 nM | < 100 nM | < 100 nM | Cc1cc(-c2[nH]c3ccc(C4CCN(C5CCS(=O)(=O)CC5)CC4)cc3c2C(C)C)cc2cnnn12 [Example 794, 4-(4-(3-isopropyl-2-(7-methyl-[1,2,3]triazolo[1,5-a]pyridin-5-yl)-1H-indol-5-yl)piperidin-1-yl)tetrahydro-2H-thiopyran 1,1-dioxide]
5 | < 100 nM | 100 to 1000 nM | < 100 nM | CN(C)CC(=O)N1CCC(c2ccc3[nH]c(-c4ccn5ccnc5c4)c(CC(F)F)c3c2)CC1 [Example 571, 1-(4-(3-(2,2-difluoroethyl)-2-(imidazo[1,2-a]pyridin-7-yl)-1H-indol-5-yl)piperidin-1-yl)-2-(dimethylamino)ethan-1-one]
6 | 1000 to 50000 nM | < 100 nM | < 100 nM | COc1cc(-c2[nH]c3ccc(C4CCN(CCNS(C)(=O)=O)CC4)cc3c2C(C)C)nn2ncnc12 [Example 652, N-(2-(4-(3-isopropyl-2-(8-methoxy-[1,2,4]triazolo[1,5-b]pyridazin-6-yl)-1H-indol-5-yl)piperidin-1-yl)ethyl)methanesulfonamide]

The next lines start with the molecule.

Row | Structure (SMILES) | IC50 [1] | IC50 [2] | IC50 [3]
7 | Cc1cnc2ccc(-c3[nH]c4ccc(C5CCNCC5)cc4c3C(C)C)cn12 [Example 114, 6-(3-isopropyl-5-(piperidin-4-yl)-1H-indol-2-yl)-3-methylimidazo[1,2-a]pyridine] | 100 to 1000 nM | 100 to 1000 nM | < 100 nM
8 | CNC(=O)CN1CCC(c2ccc3[nH]c(-c4ccnc5[nH]ncc45)c(CC(F)F)c3c2)CC1 [Example 387, 2-(4-(3-(2,2-difluoroethyl)-2-(1H-pyrazolo[3,4-b]pyridin-4-yl)-1H-indol-5-yl)piperidin-1-yl)-N-methylacetamide] | 1000 to 50000 nM | < 100 nM | 100 to 1000 nM
9 | CCc1c(-c2ccc3[nH]c(=O)oc3c2)[nH]c2ccc(C3CCNCC3)cc12 [Example 167, 6-(3-ethyl-5-(piperidin-4-yl)-1H-indol-2-yl)benzo[d]oxazol-2(3H)-one] | 100 to 1000 nM | 100 to 1000 nM | 100 to 1000 nM
10 | CCc1c(-c2ccnc3[nH]ncc23)[nH]c2ccc(C3CCNCC3)c(C)c12 [Example 254, 4-(3-ethyl-4-methyl-5-(piperidin-4-yl)-1H-indol-2-yl)-1H-pyrazolo[3,4-b]pyridine] | > 50000 nM | 1000 to 50000 nM | 1000 to 50000 nM
11 | COc1cc(-c2[nH]c3ccc(C4CCN(CC(N)=O)CC4)cc3c2C(C)C)nn2ncnc12 [Example 284, 2-(4-(3-isopropyl-2-(8-methoxy-[1,2,4]triazolo[1,5-b]pyridazin-6-yl)-1H-indol-5-yl)piperidin-1-yl)acetamide] | 1000 to 50000 nM | < 100 nM | < 100 nM
12 | CC(C)c1c(-c2ccnc3[nH]ncc23)[nH]c2ccc(C3CCNCC3F)cc12 (stereo not drawn) [Example 171, 4-(5-(3-fluoropiperidin-4-yl)-3-isopropyl-1H-indol-2-yl)-1H-pyrazolo[3,4-b]pyridine] | 1000 to 50000 nM | < 100 nM | < 100 nM
13 | Cc1c(-c2ccnc3[nH]cc(N)c23)[nH]c2ccc(C3CCNCC3)cc12 [Example 211, 4-(3-methyl-5-(piperidin-4-yl)-1H-indol-2-yl)-1H-pyrrolo[2,3-b]pyridin-3-amine] | 1000 to 50000 nM | 1000 to 50000 nM | 1000 to 50000 nM
14 | CNC(=O)CN1CCC(c2ccc3[nH]c(-c4cn5nnnc5cc4C)c(C(C)C)c3c2)CC1 [Example 316, 2-(4-(3-isopropyl-2-(7-methyltetrazolo[1,5-a]pyridin-6-yl)-1H-indol-5-yl)piperidin-1-yl)-N-methylacetamide] | 1000 to 50000 nM | 100 to 1000 nM | < 100 nM
15 | CC(C)c1c(-c2ccn3nncc3c2)[nH]c2ccc(C3CCNCC3)cc12 [Example 81, 5-(3-isopropyl-5-(piperidin-4-yl)-1H-indol-2-yl)-[1,2,3]triazolo[1,5-a]pyridine] | 1000 to 50000 nM | 100 to 1000 nM | < 100 nM
